Assay results: article PMC4767442 (Oncotarget, 2015)
Where two headings read alike, the source gives them in different places. Marks after values point to notes of the source that are not given here.

Assays:
[1] = Pharmacokinetics after single i.v. administration to rats (plasma, UHPLC-MS/MS); format: in vivo, Wistar rats; settings: for Cmax / Tmax / AUC(0-inf) / clearance / half-life / AUC(0-t) / Vd: male, Wistar, rat, plasma, iv; for Cmax / Tmax / AUC(0-inf) / clearance / half-life / AUC(0-t): 2 mg/kg; for AUC(0-inf): read-out: AUC (zero to infinity); for AUC(0-t): read-out: AUC0-tlast; for Vd: read-out: Vz (apparent volume of distribution); for mean plasma concentration at 6 h relative to Cmax: i.v. 2 mg·kg^−1, 6 h, DpC Group 1
Protocol: Male Wistar rats (230-310 g; n = 22) obtained from Velaz (Czech Republic) were kept in an air-conditioned room under a 12 h light-dark cycle, constant temperature and humidity and had free access to water and a standard laboratory pellet diet for rodents. All animal handling and procedures were approved and supervised by the Animal Welfare Body of the Faculty of Medicine in Hradec Kralove, Charles University in Prague. The investigation conformed to the Guide for the Care and Use of Laboratory Animals.
The rats were anaesthetized with pentobarbital (30 mg^.kg^−1; i.p.) and then the vena jugularis and arteria carotis were prepared for drug administration and blood sample collection, respectively. Both Dp44mT and DpC were dissolved in a mixture of saline, PEG 300 and ethanol (5:4:1, v/v/v) and administered to rats at a dose of 2 mg^.kg^−1, as a slow i.v. bolus. Blood was then collected into EDTA-containing tubes, immediately centrifuged and the plasma kept at −80°C until being analyzed. The blood withdrawn from animals was compensated with an appropriate volume of saline. The animals were sacrificed by pentobarbital overdose.
Initially, for both compounds, rats (n = 2, in each group) were used for the in-vivo investigation of the thiosemicarbazone metabolites and also the preparation of the quantitative analytical method. For the full PK study, 6 rats were used for each compound (group 1) and the blood was sampled at 4, 10, 30, 60, 120, 240 and 360 min post-administration.
Due to the markedly slower elimination of DpC, an additional in-vivo study was performed to appropriately describe the elimination phase of this drug. The conscious rats (n = 8, group 2) were administered DpC (2 mg^.kg^−1) via slow i.v. bolus to the vena saphena. Blood was sampled from the retro-orbital plexus under light ether anesthesia during the following time intervals: 120, 360, 600, 1440 and 1800 min. Plasma samples were treated and analyzed using the analytical methods described below in the Section: UHPLC-MS/MS methods for quantitative assay of the drugs and their metabolites.
Standard non-compartmental analysis was performed implementing Kinetica software (version 4.0, Thermo Fisher Scientific Inc., MA, U.S.A.). […] Maximum concentration (Cmax) and the time to maximum concentration (Tmax) were determined directly from the geometric mean vs. time profiles and from individual profiles. The area under the mean plasma concentration–time curve from zero up to the last sampling interval (AUC0-tlast) was calculated by a combination of the linear and log-linear trapezoidal methods. The area under the mean plasma concentration–time curve from zero up to infinity (AUC) was determined as the sum of the AUC0–tlast and of the extrapolated part (i.e., the ratio of the concentration predicted at the time interval of tlast and the terminal rate constant, λz). The λz was estimated by linear regression of the log transformed concentrations in the terminal part of the curve.
Population pharmacokinetic modeling was performed using non-linear, mixed effect modeling as implemented in Monolix, version 4 (http://wfn.software.monolix.org). Pharmacokinetic parameters were estimated by computing the maximum likelihood estimator of the parameters without any approximation of the model (no linearization). This was performed using the Stochastic Approximation Expectation Maximization (SAEM) algorithm combined with a Markov chain Monte Carlo procedure. The between-animal variability in model parameters were ascribed to an exponential model and a proportional model was used to describe the residual variability. The goodness-of-fit was assessed by using several diagnostic plots (observed and predicted concentrations vs. time; observed concentrations vs. population predictions; weighted residuals vs. time; and weighted residuals vs. predictions). Individual parameter values were obtained as empirical Bayes estimates. […]

MCF-7 cells = experiment: 59Fe mobilization from cells prelabeled with 59Fe-transferrin; format: cell-based, human; settings: MCF-7 prelabeled with 59Fe-transferrin, compounds 25 μmol·L^−1, 3 h/37°C
Protocol: Iron chelation efficiency of the compounds at a concentration of 10 μmol·L^−1 was determined via 3 methods: (1) the calcein assay; (2) the ability of the ligands to induce ^59Fe mobilization from cells prelabeled with ^59Fe-transferrin; and (3) the efficacy of these agents to inhibit the uptake of ^59Fe from ^59Fe-transferrin [22, 38–40].
The fluorimetric calcein-AM assay was performed by established methods, as described previously. The Fe chelation efficiency of the metabolites in cells was expressed as a percentage of that of the parent chelator, Dp44mT or DpC (100%). For studies assessing the ability of these agents to induce ^59Fe mobilization and inhibit ^59Fe uptake from ^59Fe-transferrin by cells, human transferrin (Sigma-Aldrich, Germany) was labeled with ^59Fe (PerkinElmer, MA, USA) to generate ^59Fe-transferrin at a final specific activity of 500 pCi/pmol Fe, as previously described. The unbound ^59Fe was removed by exhaustive vacuum dialysis against a large excess of 0.15 M NaCl buffered to pH 7.4 with 1.4% NaHCO3 by standard methods.
To examine the ability of the studied substances to mobilize ^59Fe from MCF-7 cells or inhibit ^59Fe uptake from ^59Fe-transferrin, established techniques were utilized. For ^59Fe mobilization studies, cells were preincubated with ^59Fe-transferrin (0.75 μmol·L^−1) for 3 h/37°C, washed 4 times at 4°C on ice, and then reincubated with control medium or control medium containing the compounds (25 μmol·L^−1) for 3 h/37°C. The release of ^59Fe from the cells into the overlying medium was then examined by collecting both the cells and overlying medium and assessing ^59Fe levels using a γ-counter. For studies examining the ability of the agents to inhibit ^59Fe uptake from ^59Fe-transferrin, cells were incubated for 3 h/37°C with ^59Fe-transferrin (0.75 μmol·L^−1) in the presence or absence of the agents (25 μmol·L^−1), and then washed 4 times at 4°C on ice. The internalization of ^59Fe by cells was then assessed by incubation for 30 min/4°C with the general protease, Pronase (1 mg/mL), utilizing standard techniques. The amount of internalized ^59Fe in the presence of the agents was expressed as a percentage of ^59Fe internalized by control cells incubated in the presence of control media alone.

[2] = rats, i.v. 2 mg·kg^−1, individual values, mean ± S.D., DpC Group 1 only, read-out: Cmax (observed, individual)
[3] = rats, i.v. 2 mg·kg^−1, individual values, mean ± S.D., DpC Group 1 only, read-out: Tmax (observed, individual) (converted)
[4] = rats, i.v. 2 mg·kg^−1, non-compartmental analysis of geometric mean plasma curves, Dp4mT = metabolite after Dp44mT dosing, read-out: Cmax
[5] = rats, i.v. 2 mg·kg^−1, non-compartmental analysis, Dp4mT = metabolite after Dp44mT dosing, read-out: Tmax (converted)
[6] = rats, i.v. 2 mg·kg^−1, non-compartmental analysis
[7] = rats, i.v. 2 mg·kg^−1, non-compartmental analysis, read-out: CL (total plasma clearance) (converted)
[8] = rats, i.v. 2 mg·kg^−1, non-compartmental analysis, read-out: t1/2 (elimination half-life) (converted)
[9] = rats, i.v. 2 mg·kg^−1, two-compartment population model, Bayesian estimates, mean ± S.D.
[10] = rats, i.v. 2 mg·kg^−1, two-compartment population model, Bayesian estimates, mean ± S.D., read-out: CL (total clearance) (converted)
[11] = rats, i.v. 2 mg·kg^−1, two-compartment population model, Bayesian estimates, mean ± S.D., read-out: t1/2alpha (initial distribution half-life)
[12] = rats, i.v. 2 mg·kg^−1, two-compartment population model, Bayesian estimates, mean ± S.D., read-out: t1/2beta (elimination half-life) (converted)
[13] = rats, i.v., population analysis

Cmax [1, 2] [µM] | Tmax [1, 3] [min] | Cmax [1, 4] [µM] | Tmax [1, 5] [min] | AUC(0-inf) [1, 6] [µM·h] | clearance [1, 7] [mL/min/kg] | half-life [1, 8] [min] | AUC(0-inf) [1, 9] [µM·h] | clearance [1, 10] [mL/min/kg] | half-life [1, 11] [min] | half-life [1, 12] [min] | AUC(0-t) [1] [µM·h] | Vd [1, 6] [L/kg] | mean plasma concentration at 6 h relative to Cmax ([1]; rats) | lamdaz (terminal rate constant of elimination) [1, 6] [h⁻¹] | mean extrapolated AUC [1, 6] [%] | Q (intercompartmental clearance) [1, 9] | Vc (volume of central compartment) [1, 9] [L/kg] | Vp (volume of peripheral compartment) [1, 9] | SMILES | 59Fe mobilization, % of cellular 59Fe (MCF-7 cells) [%] | further results
5.57 ± 0.89 | 4 | 5.51 | 4 | 39.8 | 2.37 | 810 | 37.2 ± 16 | 3.1 | 40 ± 5 | 642 ± 240 | 32.2 | 2.77 | 21% | 0.0515 | 19 | 0.50 ± 0.11^b L·h^−1·kg^−1 | 1.05 ± 0.08 | 1.19 ± 0.68^a L·kg^−1 | CN(C(=S)NN=C(c1ccccn1)c1ccccn1)C1CCCCC1 [DpC, di(2-pyridyl)ketone 4-cyclohexyl-4-methyl-3-thiosemicarbazone] | 44 | total exposure (AUC/dose), fold exceeding that of Dp44mT ([1]; rats, i.v.): > 20 fold; dose-corrected individual Cmax, higher than Dp44mT by ([1]; rats, i.v., p<0.01): 80%
3.78 ± 1.33 | 5 | 2.55 | 4 | 1.46 | 79.7 | 132 | 1.66 ± 0.25 | 71.8 | 4.3 ± 0.54 | 102 ± 18 | 1.34 | 15 | less than 2% | 0.318 | 8 | 5.11 ± 0.66 L/h/kg | 1.02 ± 0.12 | 5.44 ± 1.70 L/kg | CN(C)C(=S)NN=C(c1ccccn1)c1ccccn1 [Dp44mT, di(2-pyridyl)ketone 4,4-dimethyl-3-thiosemicarbazone] | 51 | total clearance ([1]; rats, i.v. 2 mg·kg^−1, range of both analyses): 4.3-4.8 L^.h^−1.kg^−1; clearance, fold higher than DpC [1, 13]: 23 fold; dose-corrected total AUC, fold lower than DpC [1, 13]: 28 fold; terminal half-life of elimination (t1/2β), fold shorter than DpC [1, 13]: 6.3 fold
